Experiment [1] has as its system T47D (PI3Kα H1047R mutant) cells. Put plainly: CellTiter-Glo 2.0 luminescent cell viability assay, 72 hours, T47D cells. In kind it is cell-based. Particulars: Homo sapiens, T47D, 72 h, T47D (PI3Kα H1047R mutant) cells, CellTiter-Glo, approximately 72 hours; read-out: T47D (H1047R mutant) Viability IC50. In short, it runs like this: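 Viability was measured by CellTiter-Glo 2.0 luminescence after approximately 72 h of compound exposure at 37° C. Plating was 1000 cells per well the day before dosing, with ten 1:4 dilutions from a 10 µM top concentration. Values as percent of vehicle were fitted by variable-slope log(inhibitor) regression to give IC50.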
For orientation: ATP-based viability assays read luminescence as a measure of living cells.

Experiment [2] deals with SKBR3 (PI3Kα wild type) cells. Put plainly: CellTiter-Glo 2.0 luminescent cell viability assay, 72 hours, SKBR3 cells. In kind it is cell-based. Conditions: Homo sapiens, SK-BR-3, 72 h, SKBR3 (PI3Kα wild type) cells, CellTiter-Glo, approximately 72 hours; read-out: SKBR3 (WT) Viability IC50. In short, it runs like this: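 Viability measured via CTG luminescence following roughly 72 hours of compound exposure at 37° C. Dosing used a 10 um starting concentration diluted 1:4 over 10 points; percent-of-vehicle data fitted with a variable-slope four-parameter model for IC50.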

One may read the IC50 as the concentration that inhibits the measured activity by half.

As for `Cc1cc([C@@H](C)Nc2ccccc2C(=O)O)c2nc(N3CC4CC3C4)c(C)c(=O)n2c1` [Example 11-127, (R)-2-((1-(2-(2-azabicyclo[2.1.1]hexan-2-yl)-3,7-dimethyl-4-oxo-4H-pyrido[1,2-a]pyrimidin-9-yl)ethyl)amino)benzoic acid], the IC50 in experiment [1] was 323 nM; in experiment [2], greater than 10000 nM.
In the case of `Cc1cc([C@@H](C)Nc2ccc(Cl)nc2C(=O)O)c2nc(N3CCN(c4ccc(C#N)cc4)C[C@H]3C)c(C#N)c(=O)n2c1` [Example 11-128, 6-chloro-3-(((R)-1-(3-cyano-2-((R)-4-(4-cyanophenyl)-2-methylpiperazin-1-yl)-7-methyl-4-oxo-4H-pyrido[1,2-a]pyrimidin-9-yl)ethyl)amino)picolinic acid], the IC50 was 275 nM in experiment [1] and greater than 10000 nM in experiment [2].
The like results for `Cc1cc([C@@H](C)Nc2ccc(Cl)nc2C(=O)O)c2nc(N3CCN(c4ccc(C#N)cc4)C[C@@H]3C)c(C#N)c(=O)n2c1` [Example 11-129, 6-chloro-3-(((R)-1-(3-cyano-2-((S)-4-(4-cyanophenyl)-2-methylpiperazin-1-yl)-7-methyl-4-oxo-4H-pyrido[1,2-a]pyrimidin-9-yl)ethyl)amino)picolinic acid] were, in that order, 960 nM and greater than 10000 nM.
The like results for `Cc1cc([C@@H](C)Nc2ccc(Cl)nc2C(=O)O)c2nc(N3CCN(c4ccc(F)cc4)C[C@H]3C)c(C#N)c(=O)n2c1` [Example 11-131, 6-chloro-3-(((R)-1-(3-cyano-2-((R)-4-(4-fluorophenyl)-2-methylpiperazin-1-yl)-7-methyl-4-oxo-4H-pyrido[1,2-a]pyrimidin-9-yl)ethyl)amino)picolinic acid] were, in that order, 310 nM and greater than 10000 nM.
In the same order, the values of `Cc1cc([C@@H](C)Nc2ccc(Cl)nc2C(=O)O)c2nc(N3CCN(c4ccc(C#N)cc4C)CC3)c(C#N)c(=O)n2c1` [Example 11-132, (R)-6-chloro-3-((1-(3-cyano-2-(4-(4-cyano-2-methylphenyl)piperazin-1-yl)-7-methyl-4-oxo-4H-pyrido[1,2-a]pyrimidin-9-yl)ethyl)amino)picolinic acid] are 172 nM and greater than 10000 nM.
For `Cc1cc([C@@H](C)Nc2ccc(Cl)nc2C(=O)O)c2nc(N3CCN(c4ccc(C#N)cc4C)CC3)c(C)c(=O)n2c1` [Example 11-133, (R)-6-chloro-3-((1-(2-(4-(4-cyano-2-methylphenyl)piperazin-1-yl)-3,7-dimethyl-4-oxo-4H-pyrido[1,2-a]pyrimidin-9-yl)ethyl)amino)picolinic acid], the IC50 turned out to be 174 nM in experiment [1] and 10000 nM in experiment [2].
In the same order, the values of `Cc1cc([C@@H](C)Nc2ccccc2C(=O)O)c2nc(N3CC4CC(C3)N4c3ccc(C#N)cc3)c(C#N)c(=O)n2c1` [Example 11-134, 2-(((1R)-1-(3-cyano-2-(6-(4-cyanophenyl)-3,6-diazabicyclo[3.1.1]heptan-3-yl)-7-methyl-4-oxo-4H-pyrido[1,2-a]pyrimidin-9-yl)ethyl)amino)benzoic acid] are 605 nM and greater than 10000 nM.
Regarding `Cc1cc([C@@H](C)Nc2ccccc2C(=O)O)c2nc(N3CC4CC(C3)N4c3ccc(C#N)cc3)c(C)c(=O)n2c1` [Example 11-135, 2-(((1R)-1-(2-(6-(4-cyanophenyl)-3,6-diazabicyclo[3.1.1]heptan-3-yl)-3,7-dimethyl-4-oxo-4H-pyrido[1,2-a]pyrimidin-9-yl)ethyl)amino)benzoic acid], the IC50 in experiment [1] was 169 nM; in experiment [2], greater than 10000 nM.
In the same order, the values of `Cc1cc([C@@H](C)Nc2ccccc2C(=O)O)c2nc(N3CC(F)(F)C(F)(F)C3)c(C#N)c(=O)n2c1` [Example 11-136, (R)-2-((1-(3-cyano-7-methyl-4-oxo-2-(3,3,4,4-tetrafluoropyrrolidin-1-yl)-4H-pyrido[1,2-a]pyrimidin-9-yl)ethyl)amino)benzoic acid] are 162 nM and greater than 10000 nM.

These data come from patent US20260078120A1, “SUBSTITUTED PYRIDOPYRIMIDINONES” (MIRATI THERAPEUTICS, INC., priority 2022, published 2026).
